Measured values from ChEMBL document CHEMBL5053468, “Aromatic ring compound as ghrelin o-acyltransferase inhibitor” (2017).

Target: T1, Membrane-bound ghrelin O-acyltransferase MBOAT4 (Homo sapiens) (UniProt Q96T53)
T1 sequence (whole entry): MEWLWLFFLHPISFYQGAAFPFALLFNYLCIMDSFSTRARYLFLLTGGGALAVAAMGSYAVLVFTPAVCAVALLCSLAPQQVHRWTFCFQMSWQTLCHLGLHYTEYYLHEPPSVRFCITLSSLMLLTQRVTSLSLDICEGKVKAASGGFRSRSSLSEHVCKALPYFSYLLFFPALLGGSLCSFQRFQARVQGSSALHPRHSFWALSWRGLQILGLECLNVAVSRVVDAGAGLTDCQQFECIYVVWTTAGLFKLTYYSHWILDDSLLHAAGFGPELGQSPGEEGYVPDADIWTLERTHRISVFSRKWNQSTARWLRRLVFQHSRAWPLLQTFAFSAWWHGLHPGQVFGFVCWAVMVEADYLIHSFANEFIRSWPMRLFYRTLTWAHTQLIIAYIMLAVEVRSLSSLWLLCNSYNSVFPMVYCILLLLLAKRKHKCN
Test: Inhibition of human GOAT expressed in baculovirus infected Sf9 cells at 10 uM using octanoyl-CoA and ghrelin-biotin as substrate preincubated for 20 mins followed by substrate addition and measured after = > 1 hr by HTRF assay relative to control
Details: time hrs >=1

| SMILES | inhibition [%] |
| --- | --- |
| COC(=O)Cc1csc2c(F)c(OCc3cc(C(F)(F)F)nn3C)cc(C)c12 | 96.1 |
| Cc1sc2cc(OCc3cc(C(F)(F)F)nn3C)cc(Cl)c2c1CC(=O)O | 106 |
| COC(=O)Cc1coc2c(C)c(OCc3ccc(Cl)cc3Cl)cc(C)c12 | 68.7 |
| COC(=O)Cc1csc2cc(OCc3ccc(C(F)(F)F)nc3C)cc(F)c12 | 94.9 |
| COC(=O)Cc1csc2c(C)c(OCc3ccc(C(F)(F)F)nc3C)cc(C)c12 | 62.8 |
| COC(=O)Cc1csc2cc(OCc3cc(C)nn3C)cc(Cl)c12 | 97.4 |
| Cc1nc(C(F)(F)F)ccc1COc1cc(C)c2c(CC(=O)O)csc2c1F | 106 |
| COC(=O)Cc1csc2c(Cl)c(OCc3ccc(C(F)(F)F)nc3C)cc(Cl)c12 | 88.1 |
| COC(=O)Cc1csc2c(Cl)c(OCc3cc(C(F)(F)F)nn3C)cc(Cl)c12 | 92.7 |
| Cc1nc(C(F)(F)F)ccc1COc1cc(Cl)c2c(CC(=O)O)c(C)sc2c1 | 103 |
| COC(=O)Cc1csc2c(F)c(OCc3cc(C(F)(F)F)nn3C)cc(Cl)c12 | 98.9 |
| Cc1ccc(COc2cc(C)c3c(c2C)OCC3CC(=O)O)c(C)n1 (stereo not given) | 94.8 |
| Cn1nc(C(F)(F)F)cc1COc1cc(C(F)(F)F)c2c(CC(=O)O)csc2c1 | 103 |
| COC(=O)Cc1csc2cc(OCc3cc(C(F)(F)F)nn3C)cc(F)c12 | 99.9 |
| CCC(=O)NCC[C@@H]1COc2cc(OCc3ccc(Cl)cc3Cl)ccc21 | 59 |
| Cc1ccc(COc2cc(C)c3c(CC(=O)O)coc3c2C)c(C)n1 | 102 |
| Cc1ccc(COc2cc(C(F)(F)F)c3c(CC(=O)O)csc3c2)c(C)n1 | 103 |
| CCOC(=O)Cc1csc2cc(OCc3cc(C(F)(F)F)nn3C)ccc12 | 88.9 |
| Cn1nc(C(F)(F)F)cc1COc1cc(Cl)c2c(CC(=O)O)csc2c1Cl | 105 |

| SMILES | inhibition [%] |
| --- | --- |
| Cc1nc(C(F)(F)F)ccc1COc1cc(Cl)c2c(CC(=O)O)csc2c1F | 106 |
| COC(=O)Cc1csc2c(F)c(OCc3ccc(C(F)(F)F)nc3C)cc(Cl)c12 | 88.6 |
| COC(=O)Cc1c(C)sc2cc(OCc3cc(C(F)(F)F)nn3C)cc(Cl)c12 | 99.5 |
| COC(=O)Cc1csc2cc(OCc3cc(C)nn3C)cc(C)c12 | 94.7 |
| COC(=O)Cc1c(C)sc2cc(OCc3ccc(C(F)(F)F)nc3C)cc(Cl)c12 | 51.5 |
| COC(=O)Cc1csc2c(F)c(OCc3ccc(C(F)(F)F)nc3C)cc(C)c12 | 94 |
| CC(=O)NCC[C@@H]1COc2cc(OCc3ccc(Cl)cc3Cl)ccc21 | 69 |
| Cn1nc(C(F)(F)F)cc1COc1cc(Cl)c2c(CC(=O)O)csc2c1F | 107 |
| Cc1nc(C(F)(F)F)ccc1COc1cc(C)c2c(CC(=O)O)csc2c1C | 105 |
| COC(=O)Cc1csc2cc(OCc3ccc(C(F)(F)F)nc3C)cc(C)c12 | 93.8 |
| COC(=O)Cc1coc2c(C)c(OCc3ccc(C)nc3C)cc(C)c12 | 92.7 |
| Cc1cc(OCc2cc(C(F)(F)F)nn2C)c(F)c2scc(CC(=O)O)c12 | 104 |
| Cc1cc(COc2cc(C)c3c(CC(=O)O)csc3c2)n(C)n1 | 95.6 |
| Cc1cc(OCc2cc(C(F)(F)F)nn2C)cc2scc(CC(=O)O)c12 | 104 |
| Cn1nc(C(F)(F)F)cc1COc1cc(F)c2c(CC(=O)O)csc2c1 | 104 |
| COC(=O)Cc1csc2cc(OCc3cc(C(F)(F)F)nn3C)cc(C)c12 | 95.2 |
| COC(=O)Cc1csc2cc(OCc3cc(C(F)(F)F)nn3C)cc(Cl)c12 | 100 |
| Cc1nc(C(F)(F)F)ncc1COc1cc(C)c2c(CC(=O)O)csc2c1 | 100 |
| Cn1nc(C(F)(F)F)cc1COc1cc(Cl)c2c(CC(=O)O)csc2c1 | 105 |

Results, then the compound that gave them:

| inhibition [%] | SMILES |
| --- | --- |
| 100 | O=C(O)Cc1coc2c(Cl)c(OCc3ccc(Cl)cc3Cl)ccc12 |
| 97.3 | Cc1ccc(CCc2ccc3c(CC(=O)O)csc3c2)c(C)n1 |
| 83 | O=C(O)Cc1csc2cc(S(=O)(=O)Cc3ccc(Cl)cc3Cl)ccc12 |
| 102 | Cc1nc(C(F)(F)F)ccc1COc1cc(F)c2c(CC(=O)O)csc2c1 |
| 99 | O=C(O)CC1CSc2cc(OCc3ccc(Cl)cc3Cl)ccc21 (stereo not given) |
| 85 | COCC1(C(=O)O)COc2cc(OCc3ccc(Cl)cc3Cl)ccc21 (stereo not given) |
| 103 | Cc1cc(OCc2ccc(Cl)cc2Cl)cc2scc(CC(=O)O)c12 |
| 99.2 | O=C(O)Cc1csc2cc(OCc3ccc(Cl)cc3Cl)ccc12 |
| 98.2 | Cn1nc(C(F)(F)F)cc1COc1ccc2c(CC(=O)O)csc2c1 |
| 96.5 | COC(=O)Cc1csc2cc(OCc3ccc(C)nc3C)cc(Cl)c12 |
| 73 | CC(=O)NCCc1coc2cc(OCc3ccc(Cl)cc3Cl)ccc12 |
| 56 | CCOC(=O)CNC(=O)Cc1csc2cc(OCc3ccc(Cl)cc3Cl)ccc12 |
| 86 | COC(=O)C(CO)NC(=O)Cc1csc2cc(OCc3ccc(Cl)cc3Cl)ccc12 (stereo not given) |
| 92.8 | CCOC(=O)Cc1csc2cc(OCc3ccc(C)nc3C)ccc12 |
| 99.3 | O=C(O)Cc1csc2cc(SCc3ccc(Cl)cc3Cl)ccc12 |
| 81 | O=C(O)C1(CO)COc2cc(OCc3ccc(Cl)cc3Cl)ccc21 (stereo not given) |
| 91.6 | COC(=O)Cc1csc2cc(OCc3ccc(C(F)(F)F)nc3C)cc(Cl)c12 |
| 99 | Cc1ccc(COc2ccc3c(CC(=O)O)csc3c2)c(C)n1 |
| 95 | O=C(O)CNC(=O)Cc1csc2cc(OCc3ccc(Cl)cc3Cl)ccc12 |

| inhibition [%] | SMILES |
| --- | --- |
| 93 | O=C(O)C[C@@H]1COc2cc(OCc3ccc(Cl)cc3Cl)ccc21 |
| 101 | Cc1nc(C(F)(F)F)ccc1COc1cc(Cl)c2c(CC(=O)O)csc2c1 |
| 97 | O=C(Cc1csc2cc(OCc3ccc(Cl)cc3Cl)ccc12)NC(CO)C(=O)O (stereo not given) |
| 83.1 | Cc1ccc(/C=C/c2ccc3c(CC(=O)O)csc3c2)c(C)n1 |
| 79 | O=C(O)CC1CS(=O)(=O)c2cc(OCc3ccc(Cl)cc3Cl)ccc21 (stereo not given) |
| 96.2 | Cc1cc(OCc2ccc(Cl)cc2Cl)c(C)c2c1C(CC(=O)O)CO2 (stereo not given) |
| 105 | Cc1cc(COc2cc(Cl)c3c(CC(=O)O)csc3c2)n(C)n1 |
| 83.2 | CCS(=O)(=O)NC(=O)Cc1csc2cc(OCc3ccc(Cl)cc3Cl)ccc12 |
| 84.4 | COC(=O)Cc1csc2cc(OCc3ccc(Cl)cc3Cl)cc(C)c12 |
| 97.3 | Cc1nc(C(F)(F)F)ncc1COc1ccc2c(CC(=O)O)csc2c1 |
| 67 | O=C(O)Cc1csc2cc([S+]([O-])Cc3ccc(Cl)cc3Cl)ccc12 (stereo not given) |
| 106 | Cc1nc(C(F)(F)F)ccc1COc1cc(Cl)c2c(CC(=O)O)csc2c1Cl |
| 107 | Cc1ccc(COc2cc(Cl)c3c(CC(=O)O)csc3c2)c(C)n1 |
| 86 | O=C(O)C[C@H]1COc2cc(OCc3ccc(Cl)cc3Cl)ccc21 |
| 99.2 | Cc1nc(C(F)(F)F)ccc1COc1cc(C)c2c(CC(=O)O)csc2c1 |
| 103 | Cc1c(OCc2ccc(Cl)cc2Cl)cc(C)c2c(CC(=O)O)coc12 |
| 69 | CCOC(=O)Cc1csc2cc(OCc3ccc(Cl)cc3Cl)ccc12 |
| 93.1 | Cc1nc(C(F)(F)F)ccc1COc1ccc2c(CC(=O)O)csc2c1 |
